Earlier results in patent publication US6790668B1, “Monitoring patient compliance and bioavailability of drugs by deproteinizing body fluids” (Fundacao Oswaldo Cruz - Fiocruz, priority 1998, dated 2004).

What was measured:
[1] = human body; the rest by the kidneys
[2] = organic solvents; acid pH water

## CO[C@H]1/C=C/O[C@@]2(C)Oc3c(C)c(O)c4c(O)c(c(/C=N/N5CCN(C)CC5)c(O)c4c3C2=O)NC(=O)/C(C)=C\C=C\[C@H](C)[C@H](O)[C@@H](C)[C@@H](O)[C@@H](C)[C@H](OC(C)=O)[C@@H]1C [rifampicin]
[1]
  Share of the drug eliminated in the bile: about 80%
[2]
  Solubility: soluble both in organic solvents and in acid pH water
